Measured values: patent US6756354B2, “Therapeutic compositions containing oligo (ethylene glycol)-terminated 1,2-dithiolanes and their conjugates” (priority 2001, dated 2004)
Counter-ions that a name gives are not always drawn.

Assays:
[1] = oral; presystemic glucuronide conjugation; cited from earlier work
[2] = mouse

Row | Molecule | absolute bioavailability [1] | oral bioavailability (concluded from glucose reduction) ([2]; in vivo, po) | serum glucose ([2]; oral gavage, 10 mg/mL solution, 10 mL/kg dose)
1 | O=C(c1ccc(OCCN2CCCCC2)cc1)c1c(-c2ccc(O)cc2)sc2cc(O)ccc12 [Raloxifene, [6-hydroxy-2-(4-hydroixyphenyl)benzo[b]thien-3-yl]-4-[2-(1-piperidinyl)ethoxy]phenyl]methanone hydrochloride] | about 2% | – | –
2 | OEG-terminated 1,2-dithiolane-conjugated insulin: insulin conjugated at lysine-29 of the beta-chain with NHS-ester of carboxyl-OEG-terminated thioctamide (x is 8) | – | orally bioavailable | reduction
